Read-outs that look alike come from different tables or passages of the source.
Key:
[1] = biological target: human RORγt ligand binding domain (RORγt LBD) (Homo sapiens (Human), UniProt P51449); experiment: RORγt ThermoFluor® assay (thermal shift binding)
How it was run: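 His-tagged human RORγt LBD (0.065 mg/mL) with 60 μM 1,8-ANS in 100 mM Hepes pH 7.0, 10 mM NaCl, 2.5 mM GSH, 0.002% Tween-20 was heated at 1 °C/min.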

full-length human RORγt = full-length human RORγt (Homo sapiens (Human), UniProt P51449); experiment: RORγt (full-length human) reporter assay, Conditions B or C; assay type: cell-based; settings: for inhibition at 3 µM: at 3 μM compound concentration; for inhibition at 0.33 µM: at 0.33 μM compound concentration; for inhibition at 6 µM: read-out: RORγt (FL) Reporter Assay B or C, % inhibition @ 6 μM, Conditions B or C; for RORγt (FL) Reporter Assay B or C, % inhibition (value marked *): marked *: footnote not given
How it was run: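 HEK293T cells transiently co-transfected with GAL4-DBD–full-length human RORγt (nt 142-1635, NM_001001523.1) plus GAL4-firefly and CMV-Renilla luciferase reporters; compounds added 4-6 h post-transfection for 16-20 h in 1.3% FBS, 0.1% DMSO. Firefly signal normalized to DMSO and saturating reference compound, then to Renilla; IC50 from concentration plots.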

[2] = read-out: ThermoFluor® Assay, Kd
[3] = read-out: RORγt (FL) Reporter Assay B or C, % inhibition
[4] = read-out: RORγt (FL) Reporter Assay B or C, IC50
[5] = Conditions B or C, read-out: RORγt (FL) Reporter Assay B or C, IC50

Sequence of full-length human RORγt (P51449 other isoform, or with tags, fused parts or gaps): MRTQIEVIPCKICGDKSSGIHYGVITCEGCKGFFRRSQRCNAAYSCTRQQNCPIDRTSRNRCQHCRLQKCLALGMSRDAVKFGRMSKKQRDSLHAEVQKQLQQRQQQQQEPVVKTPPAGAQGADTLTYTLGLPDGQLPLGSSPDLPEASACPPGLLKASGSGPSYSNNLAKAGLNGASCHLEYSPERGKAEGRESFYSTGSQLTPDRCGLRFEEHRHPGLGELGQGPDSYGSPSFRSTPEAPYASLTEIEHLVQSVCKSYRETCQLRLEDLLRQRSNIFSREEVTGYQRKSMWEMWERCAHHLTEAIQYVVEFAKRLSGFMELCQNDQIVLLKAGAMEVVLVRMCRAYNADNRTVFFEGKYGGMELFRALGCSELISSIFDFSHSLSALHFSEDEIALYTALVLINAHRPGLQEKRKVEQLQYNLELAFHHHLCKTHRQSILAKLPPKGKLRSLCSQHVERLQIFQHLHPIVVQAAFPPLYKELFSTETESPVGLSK
Sequence of human RORγt ligand binding domain (RORγt LBD) (P51449 other isoform, or with tags, fused parts or gaps): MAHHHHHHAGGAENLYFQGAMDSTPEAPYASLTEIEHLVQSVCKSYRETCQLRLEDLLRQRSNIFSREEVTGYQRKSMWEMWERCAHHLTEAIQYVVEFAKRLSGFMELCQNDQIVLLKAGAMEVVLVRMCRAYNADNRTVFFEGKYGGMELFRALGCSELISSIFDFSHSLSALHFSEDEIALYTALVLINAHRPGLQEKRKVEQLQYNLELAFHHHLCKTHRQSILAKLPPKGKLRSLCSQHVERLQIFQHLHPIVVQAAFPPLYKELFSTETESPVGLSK

| SMILES | Kd [1, 2] [µM] | inhibition at 3 µM (full-length human RORγt; [3]) [%] | IC50 (full-length human RORγt; [4]) [µM] | IC50 (full-length human RORγt; [5]) [µM] | further results |
| --- | --- | --- | --- | --- | --- |
| C[C@H]1CC(F)(F)CN1C(=O)c1nc(C(=O)NCC(C)(C)O)sc1-c1cnc(NCC2(C)CC2)cc1C(F)(F)F [Example 277, 4-[(2S)-4,4-Difluoro-2-methyl-pyrrolidine-1-carbonyl]-N-(2-hydroxy-2-methyl-propyl)-5-[6-[(1-methylcyclopropyl)methylamino]-4-(trifluoromethyl)-3-pyridyl]thiazole-2-carboxamide] | 0.0024 | 113 | 0.011 | – | – |
| C[C@H]1CCCN1C(=O)c1nc(C(=O)NC2COC2)sc1-c1cnc(NC(C)(C)C)cc1C(F)(F)F [Example 259, 5-[6-(tert-Butylamino)-4-(trifluoromethyl)-3-pyridyl]-4-[(2S)-2-methylpyrrolidine-1-carbonyl]-N-(oxetan-3-yl)thiazole-2-carboxamide] | 0.003 | 101 | 0.025 | – | – |
| CC[C@H](Nc1cc(C(F)F)c(-c2sc(C(=O)N[C@H]3CC[C@@H]3O)nc2C(=O)N2CCC[C@@H]2C)cn1)C(F)(F)F (relative stereo) [Example 377, 5-(4-(Difluoromethyl)-6-(((S)-1,1,1-trifluorobutan-2-yl)amino)pyridin-3-yl)-N-((1S*,2S*)-2-hydroxycyclobutyl)-4-((S)-2-methylpyrrolidine-1-carbonyl)thiazole-2-carboxamide] | 0.0034 | 91 | 0.032 | – | – |
| C[C@H](NC(=O)c1nc(C(=O)N2CCC[C@@H]2C)c(-c2cnc(NCC(C)(C)C)cc2C(F)F)s1)C(C)(C)O [Example 344, 5-[4-(Difluoromethyl)-6-(2,2-dimethylpropylamino)-3-pyridyl]-N-[(1S)-2-hydroxy-1,2-dimethyl-propyl]-4-[(2S)-2-methylpyrrolidine-1-carbonyl]thiazole-2-carboxamide] | 0.0032 | – | 0.0053 | – | inhibition at 0.33 µM (full-length human RORγt; [3]): 53% |
| C[C@H](Nc1cc(C(F)(F)F)c(-c2sc(C(=O)NCC(C)(C)O)nc2C(=O)N2CCC(F)CC2)cn1)C1CC1 [Example 30, (S)-5-(6-((1-Cyclopropylethyl)amino)-4-(trifluoromethyl)pyridin-3-yl)-4-(4-fluoropiperidine-1-carbonyl)-N-(2-hydroxy-2-methylpropyl)thiazole-2-carboxamide] | 0.0028 | – | – | 0.02 | inhibition at 6 µM (full-length human RORγt): 104% |
| O=C(N[C@@H]1COC[C@H]1O)c1nc(C(=O)N2C3CCC2CC3)c(-c2cnc(N[C@@H](C3CC3)C(F)(F)F)cc2C(F)F)s1 [Example 442, 4-((1s,4s)-7-Azabicyclo[2.2.1]heptane-7-carbonyl)-5-[6-[[(1S)-1-cyclopropyl-2,2,2-trifluoro-ethyl]amino]-4-(difluoromethyl)-3-pyridyl]-N-[(3R,4S)-4-hydroxytetrahydrofuran-3-yl]thiazole-2-carboxamide] | 0.0016 | – | – | – | IC50 (full-length human RORγt; RORγt (FL) Reporter Assay B or C, IC50): 0.32 µM; inhibition at 1 µM (full-length human RORγt; at 1 μM compound concentration, read-out: RORγt (FL) Reporter Assay B or C, % inhibition): 96% |
| C[C@H]1CC(F)(F)CN1C(=O)c1nc(C(=O)N[C@H]2C[C@H](O)C2)sc1-c1cnc(NC(C)(C)C)cc1C(F)F [Example 429, 5-(6-(tert-Butylamino)-4-(difluoromethyl)pyridin-3-yl)-4-((S)-4,4-difluoro-2-methylpyrrolidine-1-carbonyl)-N-((1r,3S)-3-hydroxycyclobutyl)thiazole-2-carboxamide] | 0.0025 | – | 0.0095 | – | inhibition at 0.33 µM (full-length human RORγt; [3]): 113% |
| C[C@H]1CCCN1C(=O)c1nc(C(=O)N2CC(CO)C2)sc1-c1cnc(NC(C)(C)C)cc1C(F)(F)F [Example 249, [5-[6-(tert-Butylamino)-4-(trifluoromethyl)-3-pyridyl]-2-[3-(hydroxymethyl)azetidine-1-carbonyl]thiazol-4-yl]-[(2S)-2-methylpyrrolidin-1-yl]methanone] | 0.0081 | 103 | 0.024 | – | – |
| CC[C@H](Nc1cc(C(F)F)c(-c2sc(C(=O)N[C@H](C)[C@H](C)O)nc2C(=O)N2CCC[C@@H]2C)cn1)C(F)(F)F (relative stereo) [Example 218, 5-(4-(Difluoromethyl)-6-(((S)-1,1,1-trifluorobutan-2-yl)amino)pyridin-3-yl)-N-((2R*,3S*)-3-hydroxybutan-2-yl)-4-((S)-2-methylpyrrolidine-1-carbonyl)thiazole-2-carboxamide] | 0.0078 | – | – | 0.045 | RORγt (FL) Reporter Assay B or C, % inhibition (value marked *) (full-length human RORγt; Conditions B or C): 111* % |
| C[C@H]1CCCN1C(=O)c1nc(C(=O)N[C@H](C)C(C)(C)O)sc1-c1cnc(NC(C)(C)C)cc1C(F)(F)F [Example 335, 5-[6-(tert-Butylamino)-4-(trifluoromethyl)-3-pyridyl]-N-[(1R)-2-hydroxy-1,2-dimethyl-propyl]-4-[(2S)-2-methylpyrrolidine-1-carbonyl]thiazole-2-carboxamide] | 0.0013 | 102 | 0.04 | – | – |
| C[C@H](Nc1cc(C(F)F)c(-c2sc(C(=O)N[C@@H]3CC[C@H]3O)nc2C(=O)N2CCC[C@@H]2C)cn1)C(F)(F)F (relative stereo) [Example 387, 5-(4-(Difluoromethyl)-6-(((S)-1,1,1-trifluoropropan-2-yl)amino)pyridin-3-yl)-N-(1R*,2R*)-2-hydroxycyclobutyl)-4-((S)-2-methylpyrrolidine-1-carbonyl)thiazole-2-carboxamide] | 0.0099 | 102 | 0.13 | – | – |
| C[C@H]1CCCN1C(=O)c1nc(C(=O)NCC(C)(C)O)sc1-c1cnc(NC2(C)CCC2)cc1C(F)F [Example 173] | 0.0058 | – | – | 0.055 | RORγt (FL) Reporter Assay B or C, % inhibition (value marked *) (full-length human RORγt; Conditions B or C): 95* % |
| C[C@H]1CCCN1C(=O)c1nc(C(=O)NCc2n[nH]c(=O)[nH]2)sc1-c1cnc(NC(C)(C)C)cc1C(F)(F)F [Example 302, (S)-5-(6-(tert-Butylamino)-4-(trifluoromethyl)pyridin-3-yl)-4-(2-methylpyrrolidine-1-carbonyl)-N-((5-oxo-4,5-dihydro-1H-1,2,4-triazol-3-yl)methyl)thiazole-2-carboxamide] | 0.049 | 86 | > 3 | – | – |
| C[C@H]1CCCN1C(=O)c1nc(C(=O)NCC(C)(C)O)sc1-c1cnc(NC2CCCC2)cc1C(F)F [Example 42, (S)-5-(6-(Cyclopentylamino)-4-(difluoromethyl)pyridin-3-yl)-N-(2-hydroxy-2-methylpropyl)-4-(2-methylpyrrolidine-1-carbonyl)thiazole-2-carboxamide] | 0.0093 | – | – | 0.042 | inhibition at 6 µM (full-length human RORγt): 111% |
| CC[C@@H](Nc1cc(C(F)(F)F)c(-c2sc(C(=O)NCC(C)(C)O)nc2C(=O)N2CCC[C@@H]2C)cn1)C1CC1 (relative stereo) [Example 129, 5-(6-(((R*)-1-Cyclopropylpropyl)amino)-4-(trifluoromethyl)pyridin-3-yl)-N-(2-hydroxy-2-methylpropyl)-4-((S)-2-methylpyrrolidine-1-carbonyl)thiazole-2-carboxamide] | 0.003 | – | – | 0.011 | RORγt (FL) Reporter Assay B or C, % inhibition (value marked *) (full-length human RORγt; Conditions B or C): 104* % |
| CC[C@H](Nc1cc(C(F)F)c(-c2sc(C(=O)N[C@@H]3CC[C@H]3O)nc2C(=O)N2CCC[C@@H]2C)cn1)C(F)(F)F (relative stereo) [Example 376, 5-(4-(Difluoromethyl)-6-(((S)-1,1,1-trifluorobutan-2-yl)amino)pyridin-3-yl)-N-((1R*,2R*)-2-hydroxycyclobutyl)-4-((S)-2-methylpyrrolidine-1-carbonyl)thiazole-2-carboxamide] | 0.0038 | 101 | 0.06 | – | – |
| C[C@H](Nc1cc(C(F)(F)F)c(-c2sc(C(=O)N[C@@H]3COC[C@@H]3O)nc2C(=O)N2C3CCC2CC3)cn1)C(F)(F)F (single isomer, unassigned) [Example 228, 4-((1s,4s)-7-Azabicyclo[2.2.1]heptane-7-carbonyl)-N-((3R*,4R*)-4-hydroxytetrahydrofuran-3-yl)-5-(4-(trifluoromethyl)-6-(((S)-1,1,1-trifluoropropan-2-yl)amino)pyridin-3-yl)thiazole-2-carboxamide] | – | – | – | – | Kd ([1]; ThermoFluor® Assay, Kd (μM)): 0.0023 µM; RORγt (FL) Reporter Assay B or C, % inhibition (value marked ***) (full-length human RORγt; Conditions B or C, marked ***: footnote not given): 91*** %; IC50 (full-length human RORγt; RORγt (FL) Reporter Assay B or C, IC50 (μM), Conditions B or C): 0.095 µM |
| C[C@H]1CCCN1C(=O)c1nc(C(=O)NCC2(O)CCC2)sc1-c1cnc(NC(C)(C)C)cc1C(F)F [Example 133, (S)-5-(6-(tert-Butylamino)-4-(difluoromethyl)pyridin-3-yl)-N-((1-hydroxycyclobutyl)methyl)-4-(2-methylpyrrolidine-1-carbonyl)thiazole-2-carboxamide] | 0.0045 | – | – | 0.028 | RORγt (FL) Reporter Assay B or C, % inhibition (value marked *) (full-length human RORγt; Conditions B or C): 105* % |
| C[C@H]1CCCCN1C(=O)c1nc(C(=O)NCC(C)(C)O)sc1-c1cnc(NC2(C)CCC2)cc1C(F)(F)F [Example 81, (S)—N-(2-Hydroxy-2-methylpropyl)-5-(6-((1-methylcyclobutyl)amino)-4-(trifluoromethyl)pyridin-3-yl)-4-(2-methylpiperidine-1-carbonyl)thiazole-2-carboxamide] | 0.00017 | – | – | 0.0093 | RORγt (FL) Reporter Assay B or C, % inhibition (value marked *) (full-length human RORγt; Conditions B or C): 105* % |
